A short description of experiment [1]: Inhibition of human SKW3 cells adhesion to soluble ICAM1. The experiment is classed as functional, cell-based.
In a further experiment the test system is HCT-8. Kind of experiment: Cytotoxicity against human HCT8 cells at 10 ug/mL. It counts as functional.
Another experiment has as its system P388. In words: Cytotoxicity against mouse P388 cells at 0.5 ug/mL. The experiment is classed as functional.
Another experiment has as its system HeLa. Kind of experiment: Cytotoxicity against human HeLa cells. The experiment is classed as functional, cell-based.
For a further experiment, the system named is NCI-H460. Kind of experiment: Cytotoxicity against human NCI-H460 cells. It counts as functional, cell-based. The note with it: Homo sapiens, NCI-H460.
The test system of the next experiment is MCF7. Kind of experiment: Cytotoxicity against human MCF7 cells. It counts as functional, cell-based. The note with it: Homo sapiens, MCF7.
Another experiment concerns MIA PaCa-2. Kind of experiment: Cytotoxicity against human MIA-PaCa2 cells.
In experiment [2] the test system is SF-268. Kind of experiment: Cytotoxicity against human SF268 cells. The experiment is classed as functional, cell-based.
In experiment [3] the test system is SF-268. Kind of experiment: Cytotoxicity against human SF268 cells at 30 uM. It counts as functional, cell-based.
Experiment [4] concerns the target Protein kinase C beta type (Homo sapiens) (UniProt P05771). In words: Agonist activity at protein kinase C beta-1 at 50 pg/mL. It counts as functional.
The target of experiment [5] is Protein kinase C gamma type (Homo sapiens, UniProt P05129). In words: Agonist activity at protein kinase C gamma at 50 pg/mL. The experiment is classed as functional.
In experiment [6] the target is Protein kinase C beta type (Homo sapiens) (UniProt P05771). Kind of experiment: Agonist activity at protein kinase C beta2 at 50 pg/mL. It counts as functional.
For experiment [7], the target named is Protein kinase C alpha type (Homo sapiens) (UniProt P17252). Kind of experiment: Agonist activity at protein kinase C alpha at 50 pg/mL. It counts as functional.
The target in experiment [8] is Protein kinase C epsilon type (Homo sapiens) (UniProt Q02156). In words: Agonist activity at protein kinase C epsilon at 50 pg/mL. It counts as functional.
Experiment [9] has as its target Protein kinase C delta type (Homo sapiens) (UniProt Q05655). In words: Agonist activity at protein kinase C delta at 50 pg/mL. The experiment is classed as functional.

The structures appear in SMILES notation. In brackets after ≈: the same amount, converted by molar mass. Activity calls are given as the source filed them. The calls are words filed in the database; no cut-off is given here.

Sequence of Protein kinase C beta type (Homo sapiens) (P05771 2-671 limits assumed): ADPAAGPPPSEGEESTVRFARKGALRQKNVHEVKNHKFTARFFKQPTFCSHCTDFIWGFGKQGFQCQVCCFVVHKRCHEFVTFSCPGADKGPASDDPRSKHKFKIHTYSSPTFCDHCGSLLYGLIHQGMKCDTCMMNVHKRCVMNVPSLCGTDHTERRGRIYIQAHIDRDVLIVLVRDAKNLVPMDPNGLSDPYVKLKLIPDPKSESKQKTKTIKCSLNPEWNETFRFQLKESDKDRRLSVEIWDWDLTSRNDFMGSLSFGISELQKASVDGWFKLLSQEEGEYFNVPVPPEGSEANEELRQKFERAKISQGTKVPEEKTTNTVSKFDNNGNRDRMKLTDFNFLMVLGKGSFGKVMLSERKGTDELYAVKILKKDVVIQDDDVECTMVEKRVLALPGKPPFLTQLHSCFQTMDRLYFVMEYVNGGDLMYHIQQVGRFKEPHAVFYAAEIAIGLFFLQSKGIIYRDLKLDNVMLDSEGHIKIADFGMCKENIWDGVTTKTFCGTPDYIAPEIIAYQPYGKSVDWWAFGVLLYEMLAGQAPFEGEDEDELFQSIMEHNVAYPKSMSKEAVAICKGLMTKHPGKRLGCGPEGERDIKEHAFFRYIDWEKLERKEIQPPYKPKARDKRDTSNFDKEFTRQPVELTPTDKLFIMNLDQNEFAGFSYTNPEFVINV
Sequence of Protein kinase C delta type (Homo sapiens) (Q05655 whole entry, looked up): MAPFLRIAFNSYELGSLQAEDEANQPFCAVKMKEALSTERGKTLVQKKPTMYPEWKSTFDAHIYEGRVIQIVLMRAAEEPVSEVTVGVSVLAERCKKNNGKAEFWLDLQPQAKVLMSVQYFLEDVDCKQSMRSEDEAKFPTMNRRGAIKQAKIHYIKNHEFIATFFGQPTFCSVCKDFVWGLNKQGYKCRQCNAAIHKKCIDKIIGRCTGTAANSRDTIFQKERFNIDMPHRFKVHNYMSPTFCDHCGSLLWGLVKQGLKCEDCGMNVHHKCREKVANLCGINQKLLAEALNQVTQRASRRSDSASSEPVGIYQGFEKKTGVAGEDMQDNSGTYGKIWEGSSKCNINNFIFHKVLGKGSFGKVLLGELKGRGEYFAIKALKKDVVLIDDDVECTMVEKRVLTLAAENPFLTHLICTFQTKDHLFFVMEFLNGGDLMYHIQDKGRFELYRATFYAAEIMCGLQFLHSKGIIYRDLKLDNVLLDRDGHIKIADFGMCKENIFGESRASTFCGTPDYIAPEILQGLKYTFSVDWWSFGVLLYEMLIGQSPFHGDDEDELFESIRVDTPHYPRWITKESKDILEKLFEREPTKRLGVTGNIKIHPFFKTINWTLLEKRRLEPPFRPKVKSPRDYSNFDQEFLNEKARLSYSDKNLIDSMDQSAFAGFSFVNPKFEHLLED
Sequence of Protein kinase C epsilon type (Homo sapiens) (Q02156 whole entry): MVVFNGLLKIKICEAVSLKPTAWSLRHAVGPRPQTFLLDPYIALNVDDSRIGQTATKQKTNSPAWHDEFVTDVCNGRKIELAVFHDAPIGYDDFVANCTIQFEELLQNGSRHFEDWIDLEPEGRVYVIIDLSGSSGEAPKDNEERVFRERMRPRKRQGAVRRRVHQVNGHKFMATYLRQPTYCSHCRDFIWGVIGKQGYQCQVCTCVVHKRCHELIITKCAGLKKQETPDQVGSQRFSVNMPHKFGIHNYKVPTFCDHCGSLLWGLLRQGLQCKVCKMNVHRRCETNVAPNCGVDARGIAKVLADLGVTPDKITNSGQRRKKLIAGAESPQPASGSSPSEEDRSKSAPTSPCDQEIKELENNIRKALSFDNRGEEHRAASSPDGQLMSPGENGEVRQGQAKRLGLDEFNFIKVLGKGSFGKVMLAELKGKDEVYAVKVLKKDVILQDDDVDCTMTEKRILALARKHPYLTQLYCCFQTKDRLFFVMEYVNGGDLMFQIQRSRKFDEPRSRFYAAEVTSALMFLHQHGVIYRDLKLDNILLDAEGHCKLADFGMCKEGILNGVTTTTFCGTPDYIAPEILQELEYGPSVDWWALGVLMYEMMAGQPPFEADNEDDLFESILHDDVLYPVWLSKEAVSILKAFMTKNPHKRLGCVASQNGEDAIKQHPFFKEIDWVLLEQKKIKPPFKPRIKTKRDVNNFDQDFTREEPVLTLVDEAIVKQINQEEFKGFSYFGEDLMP

With `Cc1ccc2c(c1O)C(=O)c1c(cc(O)c(C(=O)O)c1C)[C@]2(C)OO[C@@]1(C)c2cc(O[C@H]3O[C@@H](CO)[C@@H](O)[C@@H](O[C@@H]4O[C@H](CO)[C@H](O)[C@H](O)[C@H]4O)[C@@H]3O)c(C(=O)O)c(C)c2C(=O)c2c1ccc(C)c2O` [ADXANTHROMYCIN B], the IC50 in [1] was determined as 25 µg/mL (≈ 25.5 µM).
Turning to `Cc1ccc2c(c1O)C(=O)c1c(cc(O)c(C(=O)O)c1C)[C@]2(C)OO[C@@]1(C)c2cc(O[C@H]3O[C@@H](CO)[C@@H](O)[C@@H](O)[C@@H]3O)c(C(=O)O)c(C)c2C(=O)c2c1ccc(C)c2O` [ADXANTHROMYCIN A], the IC50 in experiment [1] came to 18.8 µg/mL (≈ 23 µM).
Regarding `CCCCCCCCCCCCCCCC[C@]1(C)C[C@](C)(CC(=O)O)OO1`, the inhibition at 10 µg/mL in the experiment on HCT-8 is 90%. In the experiment on P388, 0.5 µg/mL produced 90% inhibition.
As for `CC(=C/C(=O)O)/C=C/C=C(\C)[C@@H]1C=C2C(C)(C)CCC[C@]2(C)OO1`, the concentration for half-maximal inhibition (IC50) turned out to be 2 µg/mL (≈ 6.02 µM) in the experiment with HeLa; 2.1 µg/mL (≈ 6.32 µM) in the experiment on NCI-H460; 2.7 µg/mL (≈ 8.12 µM) in the experiment on MCF7; 1.7 µg/mL (≈ 5.11 µM) with MIA PaCa-2; 3.5 µg/mL (≈ 10.5 µM) with SF-268 [2] (Homo sapiens, SF-268, read-out: IC50).
`CC(=C/C(=O)O)/C=C/C=C(C)/C=C/[C@@H]1C=C2C(C)(C)CCC[C@]2(C)OO1`: the IC50 was 19.8 µg/mL (≈ 55.2 µM) in the experiment with HeLa; 21 µg/mL (≈ 58.6 µM) with NCI-H460; 21.9 µg/mL (≈ 61.1 µM) in the experiment with MCF7; 13.9 µg/mL (≈ 38.8 µM) in the experiment with MIA PaCa-2; “Not Active” in the experiment with SF-268 [2] (sf-268). Also, in the experiment with SF-268 [3], the result was inactive.
Turning to `CC(CCCCCCCCc1ccccc1)C[C@]1(C)C[C@]2(C)OC(=O)C[C@@H]2OO1` (stereo partly specified), the Activity in experiment [4] was 13%; in experiment [5], 9%; in experiment [6], 27%; in [7], 19%; in [8] it was 38%; in experiment [9], 9%.

The values above are taken from ChEMBL document CHEMBL1149799, “Bioactive peroxides as potential therapeutic agents” (Eur J Med Chem, 2008).
